Assay results taken from US20210171948A1, “COMPOSITIONS AND METHODS FOR TARGETING GLYPICAN-2 IN THE TREATMENT OF CANCER” (Shepherd Therapeutics, Inc., priority 2019, published 2021).
d = 2'-deoxy (DNA); r = 2'-OH (RNA)

Experiments:
SH-SY5Y cells [1] = experiment: Carboplatin IC50 in siRNA-transfected cells, Cell Titer Glo 2.0 viability (Example 6); assay type: cell-based; conditions: for IC50: SH-SY5Y cells transfected with the labelled siRNA, carboplatin added 24 hours post transfection, 72 hour incubation
Experimental: (§1) GPC2 mRNA expression was reduced using the indicated siRNAs and changes in cell viability were assessed in multiple neuroblastoma cell lines. Cells were transfected with either a control siRNA or with GPC2 siRNA sequences 3, 5 or 7 from Table 7 using the RNAiMAX Lipofectamine kit (Invitrogen, Carlsbad, Calif.) as previously described in 96 wells for viability assays. Carboplatin was added at increasing concentrations (0 to 150 uM) to transfected cells at 24 hours post transfection. Following a 72 hour incubation period, viability measurements were made using Cell Titer Glo 2.0.

SK-N-BE2 cells [2] = experiment: as above; assay type: cell-based; conditions: for Data Summary: effect of knockdown on sensitivity to carboplatin: SK-N-BE2; for IC50: SK-N-BE2 cells transfected with the labelled siRNA, carboplatin added 24 hours post transfection, 72 hour incubation
Experimental: as §1

CHLA-90 cells [3] = experiment: as above; assay type: cell-based; conditions: for Data Summary: effect of knockdown on sensitivity to carboplatin: CHLA-90; for IC50: CHLA-90 cells transfected with the labelled siRNA, carboplatin added 24 hours post transfection, 72 hour incubation
Experimental: as §1

CHP212 cells [4] = experiment: as above; assay type: cell-based; conditions: for Data Summary: effect of knockdown on sensitivity to carboplatin: CHP212; for IC50: CHP212 cells transfected with the labelled siRNA, carboplatin added 24 hours post transfection, 72 hour incubation
Experimental: as §1

SH-SY5Y cells [5] = experiment: Doxorubicin IC50 in siRNA-transfected cells, Cell Titer Glo viability (Example 8); assay type: cell-based; conditions: SH-SY5Y cells transfected with the labelled siRNA; doxorubicin added 24 hours post transfection, 72 hour incubation
Experimental: as §1, with “reduced” for “reduced using the indicated siRNAs”, “with GPC-2” for “with GPC2”, “assays. Doxorubicin” for “assays. Carboplatin”, “concentrations (0-5” for “concentrations (0 to 150”, “Titer Glo.” for “Titer Glo 2.0.”

SK-N-BE2 cells [6] = experiment: as above; assay type: cell-based; conditions: for IC50: SK-N-BE2 cells transfected with the labelled siRNA, doxorubicin added 24 hours post transfection, 72 hour incubation
Experimental: as §1, with “reduced” for “reduced using the indicated siRNAs”, “with GPC-2” for “with GPC2”, “assays. Doxorubicin” for “assays. Carboplatin”, “concentrations (0-5” for “concentrations (0 to 150”, “Titer Glo.” for “Titer Glo 2.0.”

CHLA-90 cells [7] = experiment: as above; assay type: cell-based; conditions: for IC50: CHLA-90 cells transfected with the labelled siRNA, doxorubicin added 24 hours post transfection, 72 hour incubation
Experimental: as §1, with “reduced” for “reduced using the indicated siRNAs”, “with GPC-2” for “with GPC2”, “assays. Doxorubicin” for “assays. Carboplatin”, “concentrations (0-5” for “concentrations (0 to 150”, “Titer Glo.” for “Titer Glo 2.0.”

CHP212 cells [8] = experiment: as above; assay type: cell-based; conditions: for Data Summary: effect of knockdown on sensitivity to doxorubicin: CHP212; for IC50: CHP212 cells transfected with the labelled siRNA, doxorubicin added 24 hours post transfection, 72 hour incubation
Experimental: as §1, with “reduced” for “reduced using the indicated siRNAs”, “with GPC-2” for “with GPC2”, “assays. Doxorubicin” for “assays. Carboplatin”, “concentrations (0-5” for “concentrations (0 to 150”, “Titer Glo.” for “Titer Glo 2.0.”

GPC2 mRNA [9] = experiment: GPC2 mRNA knockdown in neuroblastoma cell lines (Example 4); assay type: cell-based, human; conditions: for Degree of GPC2 knockdown among sequences 3, 5, 12-15: CHP212, SKNAS and SHSY5Y neuroblastoma cell lines, 96 hour incubation (FIG. 3A)
Experimental: GPC2 mRNA knockdown was assessed in multiple neuroblastoma cell lines. Cells were transfected with either a scrambled control siRNA, with GPC2 siRNA sequences 3 or 5 from Table 7, or with siRNA sequences generated by Dharmacon (sequences 12-15 from Table 7) using the RNAiMAX Lipofectamine kit (Invitrogen, Carlsbad, Calif.) as previously described. Following a 96 hour incubation period, total RNA samples were collected to compare knockdown efficiency and viability was measured in parallel plated cells.
The extent of GPC2 mRNA reduction was assessed with additional GPC2 siRNA sequences in the CHP212 neuroblastoma cell line. Cells were transfected with either a scrambled control siRNA or with GPC2 siRNA sequences 3 or 5, or with siRNA sequences 6-11 (Sigma) using the RNAiMAX Lipofectamine kit (Invitrogen, Carlsbad, Calif.) as previously described. Following a 96 hour incubation period, total RNA samples were collected and viability was measured in parallel plated cells.
The extent of GPC2 mRNA reduction (knockdown) and corresponding protein level expression changes were assessed in three neuroblastoma cell lines following siRNA knockdown of GPC2. The CHP212 neuroblastoma cell line (FIG. 5A and FIG. 5D), the SH-SY5Y neuroblastoma cell line (FIG. 5B and FIG. 5E) and the CHLA90 neuroblastoma cell line (FIG. 5C and FIG. 5F) were transfected with GPC2 siRNA sequences 5 and 7 from Table 7 and a scrambled control siRNA using the RNAiMAX Lipofectamine kit (Invitrogen, Carlsbad, Calif.) as previously described. Following a 24, 48, or 72 hour incubation period, cells were washed and total RNA was isolated for measuring GPC2 mRNA expression. For protein analysis, cells were fixed, immunostained using an antibody against GPC2 protein, protein expression was measured via flow cytometry. As shown, GPC2 mRNA knockdown was observed beginning at the 24 hr time point and lasted for at least 72 hours. GPC2 protein expression started to decrease at the 48 hr time point.

SH-SY5Y cells [10] = experiment: Etoposide IC50 in siRNA-transfected cells, Cell Titer Glo 2.0 viability (Example 9); assay type: cell-based; conditions: for Data Summary: effect of knockdown on sensitivity to etoposide: SH-SY5Y; for IC50: SH-SY5Y cells transfected with the labelled siRNA, etoposide added 24 hours post transfection, 72 hour incubation
Experimental: as §1, with “reduced” for “reduced using the indicated siRNAs”, “Etoposide” for “Carboplatin”, “(0-15” for “(0 to 150”, “measurement” for “measurements”

SK-N-BE2 cells [11] = experiment: as above; assay type: cell-based; conditions: for Data Summary: effect of knockdown on sensitivity to etoposide: SK-N-BE2; for IC50: SK-N-BE2 cells transfected with the labelled siRNA, etoposide added 24 hours post transfection, 72 hour incubation
Experimental: as §1, with “reduced” for “reduced using the indicated siRNAs”, “Etoposide” for “Carboplatin”, “(0-15” for “(0 to 150”, “measurement” for “measurements”

CHLA-90 cells [12] = experiment: as above; assay type: cell-based; conditions: for IC50: CHLA-90 cells transfected with the labelled siRNA, etoposide added 24 hours post transfection, 72 hour incubation
Experimental: as §1, with “reduced” for “reduced using the indicated siRNAs”, “Etoposide” for “Carboplatin”, “(0-15” for “(0 to 150”, “measurement” for “measurements”

CHP212 cells [13] = experiment: as above; assay type: cell-based; conditions: for IC50: CHP212 cells transfected with the labelled siRNA, etoposide added 24 hours post transfection, 72 hour incubation
Experimental: as §1, with “reduced” for “reduced using the indicated siRNAs”, “Etoposide” for “Carboplatin”, “(0-15” for “(0 to 150”, “measurement” for “measurements”

GPC2 mRNA [14] = experiment: GPC2 mRNA knockdown in neuroblastoma cell lines, representative data from a separate experiment (Tables 10-14); assay type: cell-based, human; parameters: concentration or dose not given beside the values
[15] = CHLA-90, compared to scrambled siRNA control
[16] = CHLA-136, compared to scrambled siRNA control
[17] = CHLA-172, compared to scrambled siRNA control
[18] = CHP212, compared to scrambled siRNA control
[19] = KELLY, compared to scrambled siRNA control
[20] = SH-SY5Y, compared to scrambled siRNA control
[21] = SK-N-BE2, compared to scrambled siRNA control
[22] = SKNAS, compared to scrambled siRNA control

Substance | IC50 (SH-SY5Y cells [1]) | Data Summary: effect of knockdown on sensitivity to carboplatin (SK-N-BE2 cells [2]) | IC50 (SK-N-BE2 cells [2]) | Data Summary: effect of knockdown on sensitivity to carboplatin (CHLA-90 cells [3]) | IC50 (CHLA-90 cells [3]) | Data Summary: effect of knockdown on sensitivity to carboplatin (CHP212 cells [4]) | IC50 (CHP212 cells [4]) | IC50 (SH-SY5Y cells [5]) | IC50 (SK-N-BE2 cells [6]) | IC50 (CHLA-90 cells [7]) | Data Summary: effect of knockdown on sensitivity to doxorubicin (CHP212 cells [8]) | IC50 (CHP212 cells [8]) | Degree of GPC2 knockdown among sequences 3, 5, 12-15 (GPC2 mRNA [9]) | Data Summary: effect of knockdown on sensitivity to etoposide (SH-SY5Y cells [10]) | IC50 (SH-SY5Y cells [10]) | Data Summary: effect of knockdown on sensitivity to etoposide (SK-N-BE2 cells [11]) | IC50 (SK-N-BE2 cells [11]) | IC50 (CHLA-90 cells [12]) | IC50 (CHP212 cells [13]) | % KD; percent GPC2 mRNA reduction (knockdown) (GPC2 mRNA [14]; [15]) | further results
GPC2 siRNA 3: siRNA duplex: sense CCUGCUUGGACCUCGAUAA[dT][dT] (SEQ ID NO: 207), anti-sense UUAUCGAGGUCCAAGCAGG[dT][dT] (SEQ ID NO: 208) (sense CCUGCUUGGACCUCGAUAANN; antisense UUAUCGAGGUCCAAGCAGGNN; 3' dTdT overhangs, chemistry not fully specified; listed as Homo sapiens) | 2300 nM | increases sensitivity to | 27900 nM | increases sensitivity to | 100000 nM | increases sensitivity to | 19900 nM | 80 nM | 1000 nM | 350 nM | does not increase sensitivity | 30 nM | greater | 7 increases sensitivity to etoposide | 80 nM | 7 increases sensitivity to etoposide | 1000 nM | 350 nM | 30 nM | 50% | % KD; percent GPC2 mRNA reduction (knockdown) (GPC2 mRNA [14]; [16]): 25%; % KD; percent GPC2 mRNA reduction (knockdown) (GPC2 mRNA [14]; [17]): 5%; % KD; percent GPC2 mRNA reduction (knockdown) (GPC2 mRNA [14]; [18]): 60%; % KD; percent GPC2 mRNA reduction (knockdown) (GPC2 mRNA [14]; [19]): 65%; % KD; percent GPC2 mRNA reduction (knockdown) (GPC2 mRNA [14]; [20]): 55%; % KD; percent GPC2 mRNA reduction (knockdown) (GPC2 mRNA [14]; [21]): 55%; % KD; percent GPC2 mRNA reduction (knockdown) (GPC2 mRNA [14]; [22]): 40%
GPC2 siRNA 5: siRNA duplex: sense CUCAGUAGCCCAGCACUCU[dT][dT] (SEQ ID NO: 211), anti-sense AGAGUGCUGGGCUACUGAG[dT][dT] (SEQ ID NO: 212) (sense CUCAGUAGCCCAGCACUCUTT; antisense AGAGUGCUGGGCUACUGAGTT; sugars from the 5' end r19 d2, backbone not given here; listed as Homo sapiens) | 1550 nM | increases sensitivity to | 11000 nM | increases sensitivity to | 100000 nM | increases sensitivity to | 10400 nM | 50 nM | 20 nM | 250 nM | does not increase sensitivity | 20 nM | greater | 7 increases sensitivity to etoposide | 50 nM | 7 increases sensitivity to etoposide | 20 nM | 250 nM | 20 nM | 55% | Data Summary: effect of knockdown on sensitivity to carboplatin (SH-SY5Y cells [1]; SH-SY5Y): increases sensitivity to; Data Summary: effect of knockdown on sensitivity to doxorubicin (SK-N-BE2 cells [6]; SK-N-BE2): increases sensitivity to; Data Summary: effect of knockdown on sensitivity to doxorubicin (CHLA-90 cells [7]; CHLA-90): increases sensitivity to; Time for which reduced GPC2 mRNA expression was sustained (GPC2 mRNA [9]; CHLA90 neuroblastoma cells (FIG. 5C)): 72 h; Time point at which GPC2 mRNA knockdown was first observed (GPC2 mRNA [9]; CHP212, SH-SY5Y and CHLA90 neuroblastoma cell lines): 24 h; Degree of GPC2 knockdown among sequences 3, 5, 6-11 (GPC2 mRNA [9]; CHP212 neuroblastoma cell line, 96 hour incubation (FIG. 4A)): greater; Time for which reduced GPC2 mRNA expression was sustained (GPC2 mRNA [9]; CHP212 neuroblastoma cells (FIG. 5A)): 72 h; Time for which reduced GPC2 mRNA expression was sustained (GPC2 mRNA [9]; SH-SY5Y neuroblastoma cells (FIG. 5B)): 72 h; Data Summary: effect of knockdown on sensitivity to etoposide (CHLA-90 cells [12]; CHLA-90): increases sensitivity to etoposide; Data Summary: effect of knockdown on sensitivity to etoposide (CHP212 cells [13]; CHP212): increases sensitivity to etoposide; % KD; percent GPC2 mRNA reduction (knockdown) (GPC2 mRNA [14]; [16]): 35%; % KD; percent GPC2 mRNA reduction (knockdown) (GPC2 mRNA [14]; [17]): 8%; % KD; percent GPC2 mRNA reduction (knockdown) (GPC2 mRNA [14]; [18]): 70%; % KD; percent GPC2 mRNA reduction (knockdown) (GPC2 mRNA [14]; [19]): 75%; % KD; percent GPC2 mRNA reduction (knockdown) (GPC2 mRNA [14]; [20]): 75%; % KD; percent GPC2 mRNA reduction (knockdown) (GPC2 mRNA [14]; [21]): 68%; % KD; percent GPC2 mRNA reduction (knockdown) (GPC2 mRNA [14]; [22]): 70%
